Assay results taken from patent US12221417B2, “Salt of omecamtiv mecarbil and process for preparing salt” (Cytokinetics, Inc., priority 2013, dated 2025).
Where a name gives a salt, the structure may show the parent alone.

Key:
[1] = pH 3.5
physchem = conditions: pH 3.5, water, thermodynamic from solid
[2] = Dynamic vapor sorption (moisture balance); format: physicochemical
Experimental: Moisture balance data was collected using a VTI SGA 100 symmetrical vapor sorption analyzer. Relative humidity was varied in increments of 5%, between 5% and 95% relative humidity during the adsorption run, and from 95% to 5% relative humidity during the desorption run. Equilibrium criteria was set at 0.01% weight change in 1 minute with a max equilibrium time of 180 minutes. Approximately 1-15 mg of sample was used.

[3] = Water solubility (24 hour slurry experiment); conditions: pH 3.8, water, thermodynamic from solid

phase change during the slurry experiment [1]	solubility at 24 h (physchem) [mg/mL]	weight change, dynamic vapor sorption ([2]; above 15% relative humidity, upon reaching 95% relative humidity) [%]	weight loss, dynamic vapor sorption ([2]; between about 30% and about 5% RH)	total weight gain, dynamic vapor sorption ([2]; between about 40% and about 95% relative humidity)	hygroscopicity ([2]; dynamic vapor sorption)	phase change after the vapor sorption experiment ([2]; examined by XRPD)	solubility [3] [mg/mL]	Structure (SMILES)
no phase change	> 40	~1.0	about 2.7 wt %	about 0.55 wt. %	non-hygroscopic	No phase change	–	COC(=O)N1CCN(Cc2cccc(NC(=O)Nc3ccc(C)nc3)c2F)CC1 [Form A, omecamtiv mecarbil dihydrochloride hydrate]
–	–	–	–	–	–	–	> 40	COC(=O)N1CCN(Cc2cccc(NC(=O)Nc3ccc(C)nc3)c2F)CC1 [dihydrochloride salt, omecamtiv mecarbil dihydrochloride hydrate]
